# Test results published in ChEMBL document CHEMBL1615345, “Evaluation of a published in silico model and construction of a novel Bayesian model for predicting phospholipidosis inducing potential” (J Chem Inf Model, 2007).
# How the values were obtained:
# [1] = system: Phospholipidosis; conditions: rat;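 further: classification drawn from published literature: compounds reported as causing phospholipidosis in rat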
# [2] = system: Phospholipidosis; assay: Phospholipidosis-positive literature compound observed in mouse; format: ADME, organism-based; conditions: in vivo
# [3] = system: Phospholipidosis; assay: Phospholipidosis-positive literature compound observed in hamster; conditions: cricetinae
# [4] = system: Phospholipidosis; assay: Phospholipidosis-positive literature compound observed in dog; format: ADME, Canis lupus familiaris
# [5] = system: Phospholipidosis; assay: Phospholipidosis-positive literature compound observed in human; format: ADME
# [6] = system: Phospholipidosis; assay: Phospholipidosis-positive literature compound observed in rabbit; format: ADME, Oryctolagus cuniculus
# [7] = system: Phospholipidosis; assay: Phospholipidosis-positive literature compound observed in guinea pig; format: ADME, Cavia porcellus
# [8] = system: Phospholipidosis; assay: Phospholipidosis-positive literature compound observed in Rhesus monkey; format: ADME, Macaca mulatta
# [9] = system: Phospholipidosis; assay: Phospholipidosis-positive literature compound observed in monkey; format: ADME; conditions: cercopithecidae
Compound,Phospholipidosis [1],Phospholipidosis [4],also measured
CCN(CC)CCOc1ccc(C(O)(Cc2ccc(Cl)cc2)c2ccc(C)cc2)cc1 (centres undefined) [TRIPARANOL],Active,–,Phospholipidosis [2]: Active; Phospholipidosis [3]: Active
CC[C@H]1OC(=O)[C@H](C)[C@@H](O[C@H]2C[C@@](C)(OC)[C@@H](O)[C@H](C)O2)[C@H](C)[C@@H](O[C@@H]2O[C@H](C)C[C@H](N(C)C)[C@H]2O)[C@](C)(O)C[C@@H](C)C(=O)[C@H](C)[C@@H](O)[C@]1(C)O [ERYTHROMYCIN],Active,Active,–
GENTAMICIN,Active,Active,Phospholipidosis [5]: Active
CN(C)CCCN(C)[C@H]1CC[C@H]2[C@@H]3CC=C4C[C@@H](O)CC[C@]4(C)[C@H]3CC[C@]12C [AZACOSTEROL],–,–,Phospholipidosis [2]: Active
Clc1ccccc1CNC[C@H]1CC[C@H](CNCc2ccccc2Cl)CC1,Active,–,Phospholipidosis [6]: Active; Phospholipidosis [2]: Active
CN(C)C/C=C(/c1ccc(Br)cc1)c1cccnc1 [ZIMELDINE],Active,Active,–
CN(C)CCCN1c2ccccc2Sc2ccc(Cl)cc21 [CHLORPROMAZINE],Active,Active,–
CCNC(C)Cc1cccc(C(F)(F)F)c1 (centres undefined) [FENFLURAMINE],Active,Active,Phospholipidosis [7]: Active
CC(=O)N1CCN(c2ccc(OCC3COC(Cn4ccnc4)(c4ccc(Cl)cc4Cl)O3)cc2)CC1 (centres undefined) [KETOCONAZOLE],–,–,Phospholipidosis [2]: Active
CCN(CC)CCCC(C)Nc1ccnc2cc(Cl)ccc12 (centres undefined) [CHLOROQUINE],Active,Active,Phospholipidosis [8]: Active; Phospholipidosis [5]: Active; Phospholipidosis [2]: Active
CCN(CC)Cc1cc(Nc2ccnc3cc(Cl)ccc23)ccc1O.Cl,–,–,Phospholipidosis [5]: Active
NC[C@H]1O[C@H](O[C@H]2[C@H](O)[C@@H](O[C@H]3O[C@H](CO)[C@@H](O)[C@H](N)[C@H]3O)[C@H](N)C[C@@H]2N)[C@H](N)C[C@@H]1O [TOBRAMYCIN],Active,–,Phospholipidosis [5]: Active
CCN(CC)CCOc1ccc2c(c1)C(=O)c1cc(OCCN(CC)CC)ccc1-2 [TILORONE],Active,–,Phospholipidosis [5]: Active
C1CCC(C(CC2CCCCN2)C2CCCCC2)CC1 (centres undefined) [PERHEXILINE],Active,–,Phospholipidosis [5]: Active; Phospholipidosis [2]: Active
CC(C)(N)Cc1ccc(Cl)cc1 [CHLORPHENTERMINE],Active,Active,Phospholipidosis [6]: Active; Phospholipidosis [2]: Active
CCC[C@@H]1C[C@@H](C(=O)N[C@@H]([C@H]2O[C@H](SC)[C@H](O)[C@@H](O)[C@H]2O)[C@H](C)Cl)N(C)C1 [CLINDAMYCIN],Active,Active,–
NCC[C@H](O)C(=O)N[C@@H]1C[C@H](N)[C@@H](O[C@H]2O[C@H](CN)[C@@H](O)[C@H](O)[C@H]2O)[C@H](O)[C@H]1O[C@H]1O[C@H](CO)[C@@H](O)[C@H](N)[C@H]1O [AMIKACIN],Active,–,–

Compound,Phospholipidosis [1],Phospholipidosis [4],also measured
OC(CN1CCCCC1)c1ccc(C=C2c3ccccc3-c3ccccc32)cc1 (centres undefined),Active,–,–
CC(C)N(CCC(CCN1CCCCC1)(C(N)=O)c1ccccc1Cl)C(C)C (centres undefined) [DISOBUTAMIDE],Active,Active,Phospholipidosis [9]: Active
CCCCc1oc2ccccc2c1C(=O)c1cc(I)c(OCCN(CC)CC)c(I)c1 [AMIODARONE],Active,–,Phospholipidosis [5]: Active
CN1CCN(C2=Nc3cc(Cl)ccc3N(C)n3cccc32)CC1,Active,–,–
CCC(c1ccc(OCCN(CC)CC)cc1)C(CC)c1ccc(OCCN(CC)CC)cc1 (centres undefined) [CORALGIL],Active,Active,Phospholipidosis [6]: Active; Phospholipidosis [5]: Active; Phospholipidosis [2]: Active; Phospholipidosis [3]: Active
CN(C)CCC=C1c2ccccc2C=Cc2c(Cl)cccc21,Active,–,–
CN(C)CCCN1c2ccccc2CCc2ccc(Cl)cc21 [CLOMIPRAMINE],Active,–,–
CCN[C@@H]1C[C@H](N)[C@@H](O[C@H]2OC(CN)=CC[C@H]2N)[C@H](O)[C@H]1O[C@H]1OC[C@](C)(O)[C@H](NC)[C@H]1O [NETILMICIN],Active,–,–
N=C(N)c1ccc(/C=C/c2ccc(C(=N)N)cc2)cc1 [STILBAMIDINE],–,–,Phospholipidosis [5]: Active
CCOc1ccc(NC(C)=O)cc1 [PHENACETIN],Active,–,–
CN(C)CCCN1c2ccccc2CCc2ccccc21 [IMIPRAMINE],Active,–,–
OCCOCCN1CCN(C(c2ccccc2)c2ccc(Cl)cc2)CC1 (centres undefined) [HYDROXYZINE],Active,–,–
CCOC(=O)C1N=C(c2ccccc2F)c2cc(Cl)ccc2NC1=O (centres undefined) [ETHYL LOFLAZEPATE],Active,–,–
C[n+]1ccc(-c2cc[n+](C)cc2)cc1,–,–,Phospholipidosis [2]: Active
CN1CCN(C(c2ccccc2)c2ccc(Cl)cc2)CC1 (centres undefined) [CHLORCYCLIZINE],Active,–,–
CCCC[C@@H]1CC(=O)[C@]2(O)O[C@@H]3[C@@H](NC)[C@@H](O)[C@@H](NC)[C@H](O)[C@H]3O[C@@H]2O1.O=S(=O)(O)O,Active,–,–
